Source: patent US9417241B2, “5, 10, 15, 20-tetrakis (carboxyphenyl) porphine (TCPP) and kit for use with detecting cancer” (bioAffinity Technologies, Inc., priority 2000, dated 2016)

How the values were obtained:
[1] = Maximum solubility of TCPP in saline or blood; assay type: physicochemical
[2] = test system: cancerous cells of the lung; settings: incubation of a cell sample for 6-24 hours with 200 μg/ml TCPP; cited from earlier work
[3] = test system: sputum cells (dysplastic, pre-cancerous and cancerous cells); experiment: Glass slide assay for detection of pre-cancerous and cancerous cells with TCPP (fluorescence microscopy of sputum monolayer slides vs PAP-stain cytomorphology); assay type: cell-based, human

Q: Which “Maximum solubility in saline or blood” value [1] does the source give for `O=C(O)c1ccc(-c2c3nc(c(-c4ccc(C(=O)O)cc4)c4ccc([nH]4)c(-c4ccc(C(=O)O)cc4)c4nc(c(-c5ccc(C(=O)O)cc5)c5ccc2[nH]5)C=C4)C=C3)cc1` [TCPP] here?
A: The value was “about 100 μg/mL”.

Q: What about the “Cellular uptake and localisation of TCPP” value [2] of the same compound?
A: The value was “bound to the perinuclear membrane and mitochondria of neoplastic cells”.

Q: And the “Number of Samples with Cells having Numerical Description by TCPP Fluorescence Microscopy/Number of Samples with Cell Description by Cytmorphology” value ([3]; 1 = Large nucleus or nuclei, low to medium fluorescence, Adenicarcinoma, squamous cell and small cell carcinoma (n = 10))?
A: The value was 6/10.

Q: What about the “Number of Samples with Cells having Numerical Description by TCPP Fluorescence Microscopy/Number of Samples with Cell Description by Cytmorphology” value ([3]; 1 = Large nucleus or nuclei, low to medium fluorescence, Carcinoma in situ (n = 11)) of the same compound?
A: The value was 10/11.

Q: What about the “Number of Samples with Cells having Numerical Description by TCPP Fluorescence Microscopy/Number of Samples with Cell Description by Cytmorphology” value ([3]; 1 = Large nucleus or nuclei, low to medium fluorescence, Mild dysplasia (n = 12)) of the same compound?
A: The value was 12/12.

Q: And the “Number of Samples with Cells having Numerical Description by TCPP Fluorescence Microscopy/Number of Samples with Cell Description by Cytmorphology” value ([3]; 1 = Large nucleus or nuclei, low to medium fluorescence, Moderate dysplasia (n = 9))?
A: The value was 9/9.

Q: What about the “Number of Samples with Cells having Numerical Description by TCPP Fluorescence Microscopy/Number of Samples with Cell Description by Cytmorphology” value ([3]; 1 = Large nucleus or nuclei, low to medium fluorescence, Negative or metaplastic (n = 10)) of the same compound?
A: Its value is 3/10.

Q: What about the “Number of Samples with Cells having Numerical Description by TCPP Fluorescence Microscopy/Number of Samples with Cell Description by Cytmorphology” value ([3]; 1 = Large nucleus or nuclei, low to medium fluorescence, Severe dysplasia (n = 8)) of the same compound?
A: Its value is 7/8.

Q: What about the “Number of Samples with Cells having Numerical Description by TCPP Fluorescence Microscopy/Number of Samples with Cell Description by Cytmorphology” value ([3]; 2 = Symmetrical binuclear cells, medium fluorescence, Adenicarcinoma, squamous cell and small cell carcinoma (n = 10)) of the same compound?
A: Its value is 2/10.

Q: And the “Number of Samples with Cells having Numerical Description by TCPP Fluorescence Microscopy/Number of Samples with Cell Description by Cytmorphology” value ([3]; 2 = Symmetrical binuclear cells, medium fluorescence, Carcinoma in situ (n = 11))?
A: Its value is 3/11.

Q: What about the “Number of Samples with Cells having Numerical Description by TCPP Fluorescence Microscopy/Number of Samples with Cell Description by Cytmorphology” value ([3]; 2 = Symmetrical binuclear cells, medium fluorescence, Mild dysplasia (n = 12)) of the same compound?
A: Its value is 5/12.

Q: And the “Number of Samples with Cells having Numerical Description by TCPP Fluorescence Microscopy/Number of Samples with Cell Description by Cytmorphology” value ([3]; 2 = Symmetrical binuclear cells, medium fluorescence, Moderate dysplasia (n = 9))?
A: The value was 5/9.

Q: What about the “Number of Samples with Cells having Numerical Description by TCPP Fluorescence Microscopy/Number of Samples with Cell Description by Cytmorphology” value ([3]; 2 = Symmetrical binuclear cells, medium fluorescence, Negative or metaplastic (n = 10)) of the same compound?
A: The value was 0/10.

Q: And the “Number of Samples with Cells having Numerical Description by TCPP Fluorescence Microscopy/Number of Samples with Cell Description by Cytmorphology” value ([3]; 2 = Symmetrical binuclear cells, medium fluorescence, Severe dysplasia (n = 8))?
A: Its value is 3/8.

Q: And the “Number of Samples with Cells having Numerical Description by TCPP Fluorescence Microscopy/Number of Samples with Cell Description by Cytmorphology” value ([3]; 3 = Small oval cells, medium to high fluorescence, Adenicarcinoma, squamous cell and small cell carcinoma (n = 10))?
A: Its value is 6/10.

Q: What about the “Number of Samples with Cells having Numerical Description by TCPP Fluorescence Microscopy/Number of Samples with Cell Description by Cytmorphology” value ([3]; 3 = Small oval cells, medium to high fluorescence, Carcinoma in situ (n = 11)) of the same compound?
A: Its value is 6/11.

Q: And the “Number of Samples with Cells having Numerical Description by TCPP Fluorescence Microscopy/Number of Samples with Cell Description by Cytmorphology” value ([3]; 3 = Small oval cells, medium to high fluorescence, Mild dysplasia (n = 12))?
A: The value was 4/12.

Q: And the “Number of Samples with Cells having Numerical Description by TCPP Fluorescence Microscopy/Number of Samples with Cell Description by Cytmorphology” value ([3]; 3 = Small oval cells, medium to high fluorescence, Moderate dysplasia (n = 9))?
A: Its value is 4/9.

Q: What about the “Number of Samples with Cells having Numerical Description by TCPP Fluorescence Microscopy/Number of Samples with Cell Description by Cytmorphology” value ([3]; 3 = Small oval cells, medium to high fluorescence, Negative or metaplastic (n = 10)) of the same compound?
A: The value was 0/10.

Q: And the “Number of Samples with Cells having Numerical Description by TCPP Fluorescence Microscopy/Number of Samples with Cell Description by Cytmorphology” value ([3]; 3 = Small oval cells, medium to high fluorescence, Severe dysplasia (n = 8))?
A: Its value is 2/8.

Q: And the “Number of Samples with Cells having Numerical Description by TCPP Fluorescence Microscopy/Number of Samples with Cell Description by Cytmorphology” value ([3]; 4 = Small round cells, low fluorescence, Adenicarcinoma, squamous cell and small cell carcinoma (n = 10))?
A: The value was 2/10.

Q: What about the “Number of Samples with Cells having Numerical Description by TCPP Fluorescence Microscopy/Number of Samples with Cell Description by Cytmorphology” value ([3]; 4 = Small round cells, low fluorescence, Carcinoma in situ (n = 11)) of the same compound?
A: The value was 0/11.

Q: And the “Number of Samples with Cells having Numerical Description by TCPP Fluorescence Microscopy/Number of Samples with Cell Description by Cytmorphology” value ([3]; 4 = Small round cells, low fluorescence, Mild dysplasia (n = 12))?
A: The value was 0/12.

Q: And the “Number of Samples with Cells having Numerical Description by TCPP Fluorescence Microscopy/Number of Samples with Cell Description by Cytmorphology” value ([3]; 4 = Small round cells, low fluorescence, Moderate dysplasia (n = 9))?
A: The value was 0/9.

Q: And the “Number of Samples with Cells having Numerical Description by TCPP Fluorescence Microscopy/Number of Samples with Cell Description by Cytmorphology” value ([3]; 4 = Small round cells, low fluorescence, Negative or metaplastic (n = 10))?
A: The value was 0/10.

Q: What about the “Number of Samples with Cells having Numerical Description by TCPP Fluorescence Microscopy/Number of Samples with Cell Description by Cytmorphology” value ([3]; 4 = Small round cells, low fluorescence, Severe dysplasia (n = 8)) of the same compound?
A: Its value is 0/8.

Q: What about the “Number of Samples with Cells having Numerical Description by TCPP Fluorescence Microscopy/Number of Samples with Cell Description by Cytmorphology” value ([3]; 5 = Multi-nucleated cells, medium fluorescence, Adenicarcinoma, squamous cell and small cell carcinoma (n = 10)) of the same compound?
A: Its value is 7/10.

Q: And the “Number of Samples with Cells having Numerical Description by TCPP Fluorescence Microscopy/Number of Samples with Cell Description by Cytmorphology” value ([3]; 5 = Multi-nucleated cells, medium fluorescence, Carcinoma in situ (n = 11))?
A: Its value is 9/11.

Q: What about the “Number of Samples with Cells having Numerical Description by TCPP Fluorescence Microscopy/Number of Samples with Cell Description by Cytmorphology” value ([3]; 5 = Multi-nucleated cells, medium fluorescence, Mild dysplasia (n = 12)) of the same compound?
A: The value was 0/12.

Q: What about the “Number of Samples with Cells having Numerical Description by TCPP Fluorescence Microscopy/Number of Samples with Cell Description by Cytmorphology” value ([3]; 5 = Multi-nucleated cells, medium fluorescence, Moderate dysplasia (n = 9)) of the same compound?
A: The value was 3/9.

Q: What about the “Number of Samples with Cells having Numerical Description by TCPP Fluorescence Microscopy/Number of Samples with Cell Description by Cytmorphology” value ([3]; 5 = Multi-nucleated cells, medium fluorescence, Negative or metaplastic (n = 10)) of the same compound?
A: The value was 0/10.

Q: And the “Number of Samples with Cells having Numerical Description by TCPP Fluorescence Microscopy/Number of Samples with Cell Description by Cytmorphology” value ([3]; 5 = Multi-nucleated cells, medium fluorescence, Severe dysplasia (n = 8))?
A: The value was 6/8.

Q: What about the “Number of Samples with Cells having Numerical Description by TCPP Fluorescence Microscopy/Number of Samples with Cell Description by Cytmorphology” value ([3]; 6 = Irregular anisoid cells, low to medium fluorescence, Adenicarcinoma, squamous cell and small cell carcinoma (n = 10)) of the same compound?
A: Its value is 7/10.

Q: And the “Number of Samples with Cells having Numerical Description by TCPP Fluorescence Microscopy/Number of Samples with Cell Description by Cytmorphology” value ([3]; 6 = Irregular anisoid cells, low to medium fluorescence, Carcinoma in situ (n = 11))?
A: Its value is 10/11.

Q: What about the “Number of Samples with Cells having Numerical Description by TCPP Fluorescence Microscopy/Number of Samples with Cell Description by Cytmorphology” value ([3]; 6 = Irregular anisoid cells, low to medium fluorescence, Mild dysplasia (n = 12)) of the same compound?
A: The value was 0/12.

Q: And the “Number of Samples with Cells having Numerical Description by TCPP Fluorescence Microscopy/Number of Samples with Cell Description by Cytmorphology” value ([3]; 6 = Irregular anisoid cells, low to medium fluorescence, Moderate dysplasia (n = 9))?
A: Its value is 1/9.

Q: And the “Number of Samples with Cells having Numerical Description by TCPP Fluorescence Microscopy/Number of Samples with Cell Description by Cytmorphology” value ([3]; 6 = Irregular anisoid cells, low to medium fluorescence, Negative or metaplastic (n = 10))?
A: Its value is 0/10.

Q: What about the “Number of Samples with Cells having Numerical Description by TCPP Fluorescence Microscopy/Number of Samples with Cell Description by Cytmorphology” value ([3]; 6 = Irregular anisoid cells, low to medium fluorescence, Severe dysplasia (n = 8)) of the same compound?
A: Its value is 1/8.

Q: What about the “Number of Samples with Cells having Numerical Description by TCPP Fluorescence Microscopy/Number of Samples with Cell Description by Cytmorphology” value ([3]; 7 = Cellular clusters, medium to high fluorescence, Adenicarcinoma, squamous cell and small cell carcinoma (n = 10)) of the same compound?
A: The value was 3/10.

Q: What about the “Number of Samples with Cells having Numerical Description by TCPP Fluorescence Microscopy/Number of Samples with Cell Description by Cytmorphology” value ([3]; 7 = Cellular clusters, medium to high fluorescence, Carcinoma in situ (n = 11)) of the same compound?
A: Its value is 1/11.

Q: And the “Number of Samples with Cells having Numerical Description by TCPP Fluorescence Microscopy/Number of Samples with Cell Description by Cytmorphology” value ([3]; 7 = Cellular clusters, medium to high fluorescence, Mild dysplasia (n = 12))?
A: Its value is 0/12.

Q: What about the “Number of Samples with Cells having Numerical Description by TCPP Fluorescence Microscopy/Number of Samples with Cell Description by Cytmorphology” value ([3]; 7 = Cellular clusters, medium to high fluorescence, Moderate dysplasia (n = 9)) of the same compound?
A: Its value is 1/9.

Q: And the “Number of Samples with Cells having Numerical Description by TCPP Fluorescence Microscopy/Number of Samples with Cell Description by Cytmorphology” value ([3]; 7 = Cellular clusters, medium to high fluorescence, Negative or metaplastic (n = 10))?
A: Its value is 0/10.

Q: What about the “Number of Samples with Cells having Numerical Description by TCPP Fluorescence Microscopy/Number of Samples with Cell Description by Cytmorphology” value ([3]; 7 = Cellular clusters, medium to high fluorescence, Severe dysplasia (n = 8)) of the same compound?
A: The value was 0/8.

Q: And the “Number of Samples with Cells having Numerical Description by TCPP Fluorescence Microscopy/Number of Samples with Cell Description by Cytmorphology” value ([3]; 8 = Degenerated single cells, medium to high fluorescence, Adenicarcinoma, squamous cell and small cell carcinoma (n = 10))?
A: Its value is 7/10.

Q: What about the “Number of Samples with Cells having Numerical Description by TCPP Fluorescence Microscopy/Number of Samples with Cell Description by Cytmorphology” value ([3]; 8 = Degenerated single cells, medium to high fluorescence, Carcinoma in situ (n = 11)) of the same compound?
A: The value was 4/11.

Q: And the “Number of Samples with Cells having Numerical Description by TCPP Fluorescence Microscopy/Number of Samples with Cell Description by Cytmorphology” value ([3]; 8 = Degenerated single cells, medium to high fluorescence, Mild dysplasia (n = 12))?
A: Its value is 0/12.

Q: And the “Number of Samples with Cells having Numerical Description by TCPP Fluorescence Microscopy/Number of Samples with Cell Description by Cytmorphology” value ([3]; 8 = Degenerated single cells, medium to high fluorescence, Moderate dysplasia (n = 9))?
A: The value was 0/9.

Q: And the “Number of Samples with Cells having Numerical Description by TCPP Fluorescence Microscopy/Number of Samples with Cell Description by Cytmorphology” value ([3]; 8 = Degenerated single cells, medium to high fluorescence, Negative or metaplastic (n = 10))?
A: Its value is 0/10.

Q: And the “Number of Samples with Cells having Numerical Description by TCPP Fluorescence Microscopy/Number of Samples with Cell Description by Cytmorphology” value ([3]; 8 = Degenerated single cells, medium to high fluorescence, Severe dysplasia (n = 8))?
A: Its value is 0/8.

Q: What about the “Number of Samples with Cells having Numerical Description by TCPP Fluorescence Microscopy/Number of Samples with Cell Description by Cytmorphology” value ([3]; 9 = Degenerated cell clusters, medium to high fluorescence, Adenicarcinoma, squamous cell and small cell carcinoma (n = 10)) of the same compound?
A: Its value is 4/10.

Q: And the “Number of Samples with Cells having Numerical Description by TCPP Fluorescence Microscopy/Number of Samples with Cell Description by Cytmorphology” value ([3]; 9 = Degenerated cell clusters, medium to high fluorescence, Carcinoma in situ (n = 11))?
A: Its value is 1/11.

Q: What about the “Number of Samples with Cells having Numerical Description by TCPP Fluorescence Microscopy/Number of Samples with Cell Description by Cytmorphology” value ([3]; 9 = Degenerated cell clusters, medium to high fluorescence, Mild dysplasia (n = 12)) of the same compound?
A: Its value is 0/12.
